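The compound was tested at five concentrations on cells cultured in 96-well plates, with a 48-hour exposure period. GI50: concentration for 50% inhibition of growth. TGI: concentration producing complete growth inhibition.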 Where a SMILES comes first, the peptide text is derived from it. The star is where a group is joined. Boc = CC(C)(C)OC(=O)*; OBn = c1ccc(CO*)cc1
Experiments:
Test in all cases: growth of human tumour cells (NCI), 48 h
OVCAR-4 ovarian = tested on: OVCAR-4 ovarian
SF-295 CNS = tested on: SF-295 CNS
A498 renal = tested on: A498 renal
SK-OV-3 ovarian = tested on: SK-OV-3 ovarian
T-47D breast = tested on: T-47D breast
SF-268 CNS = tested on: SF-268 CNS
BT-549 breast = tested on: BT-549 breast
HCT-116 colon = tested on: HCT-116 colon

Row | SMILES | TGI (OVCAR-4 ovarian) [µM] | TGI (SF-295 CNS) [µM] | TGI (A498 renal) [µM] | TGI (SK-OV-3 ovarian) [µM] | TGI (T-47D breast) [µM] | TGI (SF-268 CNS) [µM] | TGI (BT-549 breast) [µM] | TGI (HCT-116 colon) [µM] | GI50 (OVCAR-4 ovarian) [µM] | GI50 (SF-295 CNS) [µM] | GI50 (A498 renal) [µM] | GI50 (SK-OV-3 ovarian) [µM] | GI50 (T-47D breast) [µM] | GI50 (SF-268 CNS) [µM] | GI50 (HCT-116 colon) [µM]
1 | OCC(CCc1ccccc1I)C1=CCC2(CC1)OCCO2 (centres undefined) | 69.9 | 32.1 | 55.9 | > 100 | 42.3 | 50 | – | – | – | – | – | – | – | – | –
2 | COC(=O)NNC(c1ccc(Cl)cc1)c1ccc(Cl)cc1 | 55.3 | – | 34.9 | 58.6 | 68.2 | 49 | 32.4 | 30.3 | – | – | – | – | – | – | –
3 | O=C1C=C2CCC[C@H]3OC(=O)C[C@@]23CC1 | > 100 | > 100 | > 100 | > 100 | > 100 | > 100 | – | > 100 | – | – | – | – | – | – | –
4 | CCOC(=O)C(NC(=O)CC)(Nc1ccc(S(=O)(=O)Nc2onc(C)c2C)cc1)C(F)(F)F (centres undefined) | > 100 | > 100 | – | > 100 | > 100 | > 100 | > 100 | > 100 | – | – | – | – | – | – | –
5 | CC12CCCCC1=[N+]([O-])C(C)(C)N2O (centres undefined) | > 100 | > 100 | – | > 100 | > 100 | > 100 | – | > 100 | – | – | – | – | – | – | –
6 | O=C(Sc1c(-c2ccccc2)c(=O)n(-c2ccccc2)c(=S)n1-c1ccccc1)c1cccs1 | > 100 | > 100 | – | > 100 | > 100 | > 100 | > 100 | > 100 | – | – | – | – | – | – | –
7 | Cc1nnc2n(c1=O)CCN2C | > 100 | > 100 | – | > 100 | > 100 | > 100 | > 100 | > 100 | – | – | – | – | – | – | –
8 | CCOc1ccc(N=NC2C(=O)N(C(=O)CC(=O)Nc3ccccc3)N=C2C)cc1 (centres undefined) | > 100 | > 100 | > 100 | – | > 100 | > 100 | > 100 | > 100 | – | – | – | – | – | – | –
9 | Cc1cccc2nc3c(=O)[nH]c(=O)nc-3n(C)c12 | > 100 | > 100 | – | > 100 | > 100 | > 100 | > 100 | > 100 | – | – | – | – | – | – | –
10 | Nc1nccc(NCC2(CO)CCC2)n1 | – | > 100 | > 100 | – | > 100 | > 100 | > 100 | > 100 | – | – | – | – | – | – | –
11 | Cc1ccc(-n2cc(-c3ccc(Cl)cc3)c3c(NN)ncnc32)cc1 | 19.2 | 10.7 | – | 44.2 | 26.6 | 17.8 | – | 9.1 | – | – | – | – | – | – | –
12 | C=C[C@@]1(O)CCCC[C@@H]1CC(Sc1ccccc1)Sc1ccccc1 | 32.9 | 27.8 | 85 | 31.6 | 27.8 | 29 | – | 31.4 | – | – | – | – | – | – | –
13 | CCOC(=O)NNC(=O)NCc1ccccc1CNC(=O)NNC(=O)OCC | > 100 | – | > 100 | > 100 | > 100 | > 100 | > 100 | > 100 | – | – | – | – | – | – | –
14 | COc1ccc(/C=C/C(=O)c2ccc(-n3cc(CN4CCN(c5cc6c(cc5F)c(=O)c(C(=O)O)cn6C5CC5)CC4)nn3)cc2)cc1OC | 15.5 | > 100 | 14.4 | > 100 | > 100 | > 100 | – | – | 3.94 | 2.91 | 4.18 | 7.09 | 3.16 | 3.09 | –
15 | COC(=O)c1c(C)cccc1C1CN=NC12Cc1ccc(C)c(C)c1C2=O (centres undefined) | > 100 | > 100 | > 100 | – | 13.1 | > 100 | – | 45.6 | – | – | – | – | – | – | –
16 | CC(C)CC(NC(=O)OC(C)(C)C)C(=O)NC(CC(=O)OCc1ccccc1)C(=O)OCc1ccccc1 (stereo not drawn) (Boc-Leu-Asp(OBn)-OBn; configuration not given here) | – | > 100 | > 100 | > 100 | > 100 | > 100 | > 100 | > 100 | – | – | – | – | – | – | –
17 | Cc1ccc(NC2=NCCO2)c2c1CCC2 | > 100 | > 100 | > 100 | > 100 | > 100 | > 100 | – | 80 | – | – | – | – | – | – | –
18 | N#C/C(=C\c1ccc([N+](=O)[O-])s1)c1nc2cc(Cl)ccc2s1 | – | – | > 100 | – | 4.97 | > 100 | – | 1.27 | – | – | 3.56 | – | 1.88 | 2.51 | 0.329
19 | CN1CN(c2ccccc2)C2(CCN(CCCCCCF)CC2)C1=O | – | > 100 | – | > 100 | > 100 | > 100 | > 100 | > 100 | – | – | – | – | – | – | –
20 | Cc1c(OCc2ccccc2)c(=O)ccn1CCc1c[nH]c2ccccc12 | – | > 100 | – | > 100 | 58.1 | 64.1 | > 100 | > 100 | – | – | – | – | – | – | –

Reference: PubChem BioAssay (NCI)
